Measured values reported in patent US7427599B2, “Biologically active peptide comprising Tyrosyl-seryl-valine(YSV)” (CMS Peptides Patent Holding Company Limited, priority 2003, dated 2008).
Marks after values point to notes of the source that are not given here.

Columns and labels:
melanoma B16 = experiment: Growth of C57BL/6 mice-transplanted melanoma B16; assay type: in vivo; conditions: 20 mg/kg/day intraperitoneal, 20 consecutive days
Description: B16 cells were maintained in RPMI-1640 medium with 10% FBS at 37° C., 5% CO2. Mouse B16 melanoma culture at log phase was adjusted to 2.5×10^6/ml with Hank's solution. 0.2 ml of this was subcutaneously injected to the right axilla of healthy C57 BL/6 mice to form the melanoma mice model. […] From the next day after the tumor implantation, the general conditions of the mice and the growth of the tumor were observed daily. On the next day after the last test substance administration, the tumors were extirpated and the weights of tumor were measured. […] The results were presented as arithmetic mean ±SD. Statistical analysis was performed using the ANOVA test of the SPSS software.

[1] = test system: A549 human pulmonary carcinoma; experiment: A549 human pulmonary carcinoma xenograft in nude mice; assay type: in vivo, BALB/c (nu/nu) athymic nude mice; conditions: 20 mg/kg/day i.p., 40 days
Description: Healthy BALB/c (nu/nu) athymic nude mice (SPF, 4-5 weeks old, weighting 18-22 g) were purchased from Shanghai Tumor Academe of China Medical Academy of Science. In the first experiment, female was used. In the second experiment, male was used.
Select A549 human pulmonary carcinoma xenografts of diameter longer than 1 cm with good growth on nude mice. Aseptically excise the tumor mass, cut into pieces of 2-4 mm^3 and submerged in RPMI1640. Pulmonary carcinoma nude mice model was prepared by transplanting the tumor mass hypodermally to the back of healthy nude mice near to the neck via an incision at the ventral thorax.
The nude mice bearing A549 xenografts were randomly divided into groups of: saline control (0.2 ml/day), YSV groups of different dosages, and Cy control (0.2 mg/kg/day). The test substances were dissolved in 0.2 ml saline and administered intraperitoneally to the mice starting from the day after the transplantation, once per day for 40 consecutive days.
The general condition of the mice was observed daily. The mice were weighed every 3-4 days and the volume of the tumor was measured:
V=(⅙)πXYZ, where X, Y, and Z were the diameters of the tumor on the 3 planes.
The day after the last injection, the tumors were excised, weighted, and the volume measured. The tumors were examined for signs of necrosis. Tumor inhibition index=(average tumor weight of saline group−average tumor weight of test group)/average tumor weight of saline group×100%)
Statistical analysis was performed with SPSS software using one-way ANOVA analysis.

O=P1(N(CCCl)CCCl)NCCCO1 (centres unmarked) [Cyclophosphamide, reference compound]
The Inhibition rate (%) (melanoma B16): 81.5%
Tumor weight (melanoma B16; saline 2.64 ± 0.68): 0.49 ± 0.68 g
Tumor inhibition index (%) ([1]; experiment 1, female nude mice): 39.8%
Tumor volume (cm^3) ([1]; experiment 1, female nude mice, saline 1.87 ± 1.10): 1.02 ± 0.47* cm^3
Tumor weight ([1]; experiment 1, female nude mice, saline 2.49 ± 1.02): 1.50 ± 0.75 g
Tumor inhibition index (%) ([1]; experiment 2, male nude mice): 51.9%
Tumor volume (cm^3) ([1]; experiment 2, male nude mice, saline 1.34 ± 0.69): 0.49 ± 0.34* cm^3
Tumor weight ([1]; experiment 2, male nude mice, saline 1.51 ± 0.79): 0.73 ± 0.42 g
